Reference: PubChem BioAssay (NCI)
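Protocol summary: plate cells (96-well), add compound at 5 concentrations, incubate 48 h, interpolate endpoints linearly. The concentration for 50% growth inhibition is given as GI50. TGI: concentration producing complete growth inhibition.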

Tests used:
Test in all cases: NCI-60 cell line screen, 48 h
RXF 393 renal = tested on: RXF 393 renal
A549 NSCLC = tested on: A549 NSCLC
K-562 leukemia = tested on: K-562 leukemia
A498 renal = tested on: A498 renal
SK-MEL-5 melanoma = tested on: SK-MEL-5 melanoma
NCI-H460 lung = tested on: NCI-H460 lung
SF-539 CNS = tested on: SF-539 CNS
UO-31 renal = tested on: UO-31 renal
IGROV1 ovarian = tested on: IGROV1 ovarian
ACHN renal = tested on: ACHN renal
PC-3 prostate = tested on: PC-3 prostate
MOLT-4 leukemia = tested on: MOLT-4 leukemia
SK-OV-3 ovarian = tested on: SK-OV-3 ovarian
SNB-19 CNS = tested on: SNB-19 CNS
SF-295 CNS = tested on: SF-295 CNS
HCT-116 colon = tested on: HCT-116 colon
U251 CNS = tested on: U251 CNS
TK-10 renal = tested on: TK-10 renal
OVCAR-3 ovarian = tested on: OVCAR-3 ovarian
DU-145 prostate = tested on: DU-145 prostate
OVCAR-5 ovarian = tested on: OVCAR-5 ovarian
NCI/ADR-RES ovarian = tested on: NCI/ADR-RES ovarian
HCC-2998 colon = tested on: HCC-2998 colon
RPMI-8226 leukemia = tested on: RPMI-8226 leukemia
786-0 renal = tested on: 786-0 renal
COLO 205 colon = tested on: COLO 205 colon
NCI-H226 lung = tested on: NCI-H226 lung
M14 melanoma = tested on: M14 melanoma
UACC-62 melanoma = tested on: UACC-62 melanoma
EKVX NSCLC = tested on: EKVX NSCLC
SK-MEL-28 melanoma = tested on: SK-MEL-28 melanoma
MALME-3M melanoma = tested on: MALME-3M melanoma
NCI-H23 lung = tested on: NCI-H23 lung
HCT-15 colon = tested on: HCT-15 colon
SNB-75 CNS = tested on: SNB-75 CNS
MDA-MB-435 = tested on: MDA-MB-435
HL-60(TB) leukemia = tested on: HL-60(TB) leukemia
CAKI-1 renal = tested on: CAKI-1 renal
HS 578T breast = tested on: HS 578T breast
BT-549 breast = tested on: BT-549 breast
NCI-H522 lung = tested on: NCI-H522 lung
OVCAR-8 ovarian = tested on: OVCAR-8 ovarian
KM12 colon = tested on: KM12 colon
UACC-257 melanoma = tested on: UACC-257 melanoma
MDA-MB-231 breast = tested on: MDA-MB-231 breast
HT29 colon = tested on: HT29 colon
SN12C renal = tested on: SN12C renal
HOP-92 NSCLC = tested on: HOP-92 NSCLC
SW-620 colon = tested on: SW-620 colon
CCRF-CEM leukemia = tested on: CCRF-CEM leukemia
MDA-MB-468 breast = tested on: MDA-MB-468 breast
MCF7 breast = tested on: MCF7 breast
LOX IMVI melanoma = tested on: LOX IMVI melanoma
SF-268 CNS = tested on: SF-268 CNS
SK-MEL-2 melanoma = tested on: SK-MEL-2 melanoma
HOP-62 NSCLC = tested on: HOP-62 NSCLC
SR leukemia = tested on: SR leukemia
OVCAR-4 ovarian = tested on: OVCAR-4 ovarian

OCCNc1oc(-c2ccccc2)nc1[P+](c1ccccc1)(c1ccccc1)c1ccccc1
GI50 (RXF 393 renal): 1.86 µM
TGI (RXF 393 renal): 9.35 µM
GI50 (A549 NSCLC): 18.5 µM
TGI (A549 NSCLC): > 100 µM
GI50 (K-562 leukemia): 2.5 µM
TGI (K-562 leukemia): 20.7 µM
GI50 (A498 renal): 15.4 µM
TGI (A498 renal): 48.2 µM
GI50 (SK-MEL-5 melanoma): 1.52 µM
TGI (SK-MEL-5 melanoma): 2.92 µM
GI50 (NCI-H460 lung): 3.29 µM
TGI (NCI-H460 lung): 13.6 µM
GI50 (SF-539 CNS): 5.63 µM
TGI (SF-539 CNS): 19.5 µM
GI50 (UO-31 renal): 20.4 µM
TGI (UO-31 renal): 71 µM
GI50 (IGROV1 ovarian): 2.57 µM
TGI (IGROV1 ovarian): 8.53 µM
GI50 (ACHN renal): 18.8 µM
TGI (ACHN renal): 85.1 µM
GI50 (PC-3 prostate): 2.22 µM
TGI (PC-3 prostate): 11.1 µM
GI50 (MOLT-4 leukemia): 4.43 µM
TGI (MOLT-4 leukemia): 35.1 µM
GI50 (SK-OV-3 ovarian): 3.58 µM
TGI (SK-OV-3 ovarian): 16.6 µM
GI50 (SNB-19 CNS): 2.82 µM
TGI (SNB-19 CNS): 10.9 µM
GI50 (SF-295 CNS): 10.5 µM
TGI (SF-295 CNS): 24.2 µM
GI50 (HCT-116 colon): 4.8 µM
TGI (HCT-116 colon): 35.1 µM
GI50 (U251 CNS): 3.28 µM
TGI (U251 CNS): 15.4 µM
GI50 (TK-10 renal): 6 µM
TGI (TK-10 renal): 23.1 µM
GI50 (OVCAR-3 ovarian): 2.35 µM
TGI (OVCAR-3 ovarian): 11 µM
GI50 (DU-145 prostate): 6.1 µM
TGI (DU-145 prostate): 21.3 µM
GI50 (OVCAR-5 ovarian): 5.06 µM
TGI (OVCAR-5 ovarian): 34.2 µM
GI50 (NCI/ADR-RES ovarian): > 100 µM
TGI (NCI/ADR-RES ovarian): > 100 µM
GI50 (HCC-2998 colon): 3.3 µM
TGI (HCC-2998 colon): 11.7 µM
GI50 (RPMI-8226 leukemia): 0.956 µM
TGI (RPMI-8226 leukemia): 11.7 µM
GI50 (786-0 renal): 13.2 µM
TGI (786-0 renal): 29.8 µM
GI50 (COLO 205 colon): 2.14 µM
TGI (COLO 205 colon): 7.86 µM
GI50 (NCI-H226 lung): 4.05 µM
TGI (NCI-H226 lung): 24.5 µM
GI50 (M14 melanoma): 4.4 µM
TGI (M14 melanoma): 20.2 µM
GI50 (UACC-62 melanoma): 1.63 µM
TGI (UACC-62 melanoma): 4.28 µM
GI50 (EKVX NSCLC): 5.1 µM
TGI (EKVX NSCLC): 28.3 µM
GI50 (SK-MEL-28 melanoma): 2.59 µM
TGI (SK-MEL-28 melanoma): 11.4 µM
GI50 (MALME-3M melanoma): 1.95 µM
TGI (MALME-3M melanoma): 6.52 µM
GI50 (NCI-H23 lung): 4.3 µM
TGI (NCI-H23 lung): 23.8 µM
GI50 (HCT-15 colon): 29.8 µM
TGI (HCT-15 colon): > 100 µM
GI50 (SNB-75 CNS): 1.85 µM
TGI (SNB-75 CNS): 7.92 µM
GI50 (MDA-MB-435): 2.99 µM
TGI (MDA-MB-435): 11.3 µM
GI50 (HL-60(TB) leukemia): 1.57 µM
TGI (HL-60(TB) leukemia): 5.33 µM
GI50 (CAKI-1 renal): 11.5 µM
TGI (CAKI-1 renal): 43.1 µM
GI50 (HS 578T breast): 3.21 µM
TGI (HS 578T breast): 13.3 µM
GI50 (BT-549 breast): 2.51 µM
TGI (BT-549 breast): 7.88 µM
GI50 (NCI-H522 lung): 2.15 µM
TGI (NCI-H522 lung): 9.32 µM
GI50 (OVCAR-8 ovarian): 3.79 µM
TGI (OVCAR-8 ovarian): 15.2 µM
GI50 (KM12 colon): 3.21 µM
TGI (KM12 colon): 11.2 µM
GI50 (UACC-257 melanoma): 2.65 µM
TGI (UACC-257 melanoma): 8.47 µM
GI50 (MDA-MB-231 breast): 1.87 µM
TGI (MDA-MB-231 breast): 5.2 µM
GI50 (HT29 colon): 3.04 µM
TGI (HT29 colon): 17.5 µM
GI50 (SN12C renal): 2.82 µM
TGI (SN12C renal): 8.53 µM
GI50 (HOP-92 NSCLC): 1.35 µM
TGI (HOP-92 NSCLC): 6.73 µM
GI50 (SW-620 colon): 4.74 µM
TGI (SW-620 colon): 35.5 µM
GI50 (CCRF-CEM leukemia): 3.07 µM
TGI (CCRF-CEM leukemia): 19.9 µM
GI50 (MDA-MB-468 breast): 1.08 µM
TGI (MDA-MB-468 breast): 4.35 µM
GI50 (MCF7 breast): 2.69 µM
TGI (MCF7 breast): 12.5 µM
GI50 (LOX IMVI melanoma): 3.93 µM
TGI (LOX IMVI melanoma): 14.6 µM
GI50 (SF-268 CNS): 3.4 µM
TGI (SF-268 CNS): 16.6 µM
GI50 (SK-MEL-2 melanoma): 2.58 µM
TGI (SK-MEL-2 melanoma): 7.18 µM
GI50 (HOP-62 NSCLC): 10 µM
TGI (HOP-62 NSCLC): 34.4 µM
GI50 (SR leukemia): 5.12 µM
TGI (SR leukemia): 22.8 µM
GI50 (OVCAR-4 ovarian): 3.68 µM
TGI (OVCAR-4 ovarian): 59.4 µM
